Experimental findings from ChEMBL document CHEMBL1201862, “PubChem BioAssay data set” (2004) are described below.

Some test systems named below: EKVX; NCI/ADR-RES; UACC-62; LOX IMVI; SF-295; CAKI-1; HCT-15; HOP-62; MCF7; OVCAR-4; RXF 393; OVCAR-8; M14; TK-10; MDA-MB-231; K562; COLO 205; SW-620; NCI-H23.
What all share (assay): inhibition of tumour cell growth, NCI panel, 48 h

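Briefly, cells in 96-well plates were exposed to five compound concentrations for 48 h, and endpoints were estimated by linear interpolation. GI50 = concentration required for 50% inhibition of growth.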 Calls of active or inactive are those of the source. Cut-off read from the data, not from the text of the source: active = GI50 up to about 1.1 µM and inactive = higher. Where only a bound is given, the exact number is not on record here.

For `Cc1cc(Cc2c(C)c(C)c(Cc3cc(C)cc(C(C)(C)C)c3O)c(C)c2C)c(O)c(C(C)(C)C)c1`, the GI50 in the experiment on EKVX, in the experiment with NCI/ADR-RES, in the experiment on UACC-62, with LOX IMVI, in the experiment with SF-295 and in the experiment with CAKI-1 was > 100 µM (inactive) each time. The GI50 in the experiment with HCT-15 is above 100 µM; in the experiment with HOP-62, > 100 µM (inactive); in the experiment on MCF7, > 100 µM (inactive); with OVCAR-4, > 100 µM (inactive); in the experiment with RXF 393, > 100 µM (inactive); in the experiment on OVCAR-8, > 100 µM (inactive). Also, the GI50 in the experiment on M14, with TK-10, in the experiment with MDA-MB-231, with K562, in the experiment with COLO 205 and in the experiment with SW-620 was > 100 µM (inactive) in each case.

Turning to `CO/C(=N\N=C(/c1ccccc1)C(F)(F)F)c1ccncc1`, the GI50 in the experiment with NCI-H23 is 36.2 µM (inactive); with NCI/ADR-RES, 20.3 µM (inactive); with UACC-62, 27.5 µM (inactive); in the experiment on SF-295 it was 48.6 µM (inactive); in the experiment with CAKI-1, 45 µM (inactive); in the experiment on HCT-15, 27.5 µM. Also, the GI50 with HOP-62 is 46.6 µM (inactive); in the experiment on MCF7, 38.6 µM (inactive); in the experiment with OVCAR-4 it was 80.7 µM (inactive); in the experiment with RXF 393 it was 16.3 µM (inactive); in the experiment with OVCAR-8 it was 69.5 µM (inactive); in the experiment on M14 it was 52.6 µM (inactive). In addition, the results for the GI50 with MDA-MB-231, in the experiment on K562 and in the experiment with COLO 205 were 39.3 µM (inactive), 6.44 µM (inactive) and 28.7 µM (inactive), respectively.

For the molecule `COC(=O)CCc1cc(OC)c(O)c(C(Cc2ccc(OC)c(OC)c2)C(=O)OC)c1` (centres undefined), the GI50 in the experiment on NCI-H23, with EKVX, in the experiment on NCI/ADR-RES, with UACC-62, in the experiment with LOX IMVI and in the experiment on SF-295 was > 100 µM (inactive) throughout. The GI50 with HCT-15 was above 100 µM; with HOP-62, > 100 µM (inactive); with MCF7 it was > 100 µM (inactive); in the experiment with OVCAR-4, > 100 µM (inactive); in the experiment on RXF 393, > 100 µM (inactive); in the experiment on OVCAR-8, > 100 µM (inactive). Also, the GI50 in the experiment on M14, in the experiment with TK-10, with MDA-MB-231, in the experiment with K562, in the experiment with COLO 205 and in the experiment with SW-620 was > 100 µM (inactive) each time.

On to `CO/C=C(/C(=O)OC)c1ccccc1[C@H]1C[C@@H]1c1ccc(OC)cc1`, for which the GI50 in the experiment on NCI-H23 was 27.9 µM (inactive); in the experiment with EKVX, 14.3 µM (inactive); in the experiment on NCI/ADR-RES, 20.2 µM (inactive); in the experiment on UACC-62 it was 23.1 µM (inactive); in the experiment on SF-295 it was 17.2 µM (inactive); in the experiment on CAKI-1, 17.9 µM (inactive). In addition, the GI50 in the experiment with HCT-15 is 19.2 µM; with HOP-62 it was 33.9 µM (inactive); in the experiment on MCF7, 32.1 µM (inactive); in the experiment on OVCAR-4, 8.05 µM (inactive); in the experiment with RXF 393 it was 49.9 µM (inactive); in the experiment with OVCAR-8 it was 28.6 µM (inactive). Besides, the GI50 in the experiment with M14 is 18.3 µM (inactive); with TK-10 it was 37.5 µM (inactive); in the experiment on MDA-MB-231, 25.5 µM (inactive); with K562, 15.8 µM (inactive); with COLO 205, 13.1 µM (inactive).

As to `O=C(Nc1ccc2c(c1)oc(=O)c1ccccc12)C(Cl)Cl`, the GI50 in the experiment on NCI-H23 is > 100 µM (inactive); in the experiment on EKVX it was 85.5 µM (inactive); in the experiment with NCI/ADR-RES it was > 100 µM (inactive); in the experiment with UACC-62, 36.6 µM (inactive); with LOX IMVI, > 100 µM (inactive); with SF-295, > 100 µM (inactive). For the same molecule, the GI50 was > 100 µM (inactive) in the experiment with CAKI-1; 71.1 µM with HCT-15; 62.1 µM (inactive) in the experiment on HOP-62; 34.8 µM (inactive) in the experiment with MCF7; > 10 µM (inactive) in the experiment with OVCAR-4; > 100 µM (inactive) with RXF 393. Besides, the GI50 is > 100 µM (inactive) in the experiment with OVCAR-8; > 100 µM (inactive) in the experiment with M14; > 100 µM (inactive) in the experiment on MDA-MB-231; 51.2 µM (inactive) in the experiment with K562; 66.2 µM (inactive) in the experiment with COLO 205; > 100 µM (inactive) in the experiment on SW-620.

In the case of `C=C1CC(C)(c2ccc(Nc3nc4ccccc4c4occc34)cc2)OC1=O` (centres undefined), the GI50 with NCI-H23 is 1.22 µM (inactive); in the experiment with EKVX, 12.1 µM (inactive); in the experiment on NCI/ADR-RES, 4.44 µM (inactive); in the experiment with LOX IMVI, 1.95 µM (inactive); in the experiment on SF-295, 12.8 µM (inactive); in the experiment with CAKI-1, 15.8 µM (inactive). Also, the GI50 in the experiment on HCT-15 was 1.94 µM; in the experiment with HOP-62, 12.5 µM (inactive); in the experiment with MCF7 it was 3.32 µM (inactive); in the experiment with OVCAR-4, 1.77 µM (inactive); in the experiment with RXF 393 it was 2.08 µM (inactive); in the experiment on OVCAR-8 it was 2.66 µM (inactive). Also, the GI50 in the experiment with M14 was 2 µM (inactive); in the experiment with TK-10 it was 4.86 µM (inactive); in the experiment on MDA-MB-231, 1.75 µM (inactive); in the experiment with K562, 4.71 µM (inactive); with COLO 205, 3.59 µM (inactive).

On to `c1ccc2c(c1)ncn2CCn1ccnc1`, for which the GI50 in the experiment with NCI-H23, in the experiment with EKVX, in the experiment with NCI/ADR-RES, in the experiment on UACC-62, in the experiment on LOX IMVI and with SF-295 was > 100 µM (inactive) in each case. The GI50 with HCT-15 is above 100 µM; with HOP-62, > 100 µM (inactive); in the experiment with MCF7, > 100 µM (inactive); with OVCAR-4, 15.8 µM (inactive); with RXF 393 it was > 100 µM (inactive); with OVCAR-8, > 100 µM (inactive). The GI50 in the experiment on M14, with TK-10, with MDA-MB-231, in the experiment with K562, in the experiment on COLO 205 and in the experiment on SW-620 was > 100 µM (inactive) throughout.

In the case of `COc1cc([C@@]23OC[C@@H]4[C@@H](OC[C@@H]42)c2cc4c(cc23)OCO4)cc(OC)c1OC`, the GI50 was < 0.01 µM (active) in the experiment on NCI-H23; < 0.01 µM (active) in the experiment on NCI/ADR-RES; < 0.01 µM (active) with UACC-62; < 0.01 µM (active) in the experiment with LOX IMVI; < 0.01 µM (active) with SF-295; < 0.0157 µM (active) in the experiment on CAKI-1. Further, the GI50 was below 0.01 µM with HCT-15; < 0.01 µM (active) in the experiment with HOP-62; < 0.01 µM (active) in the experiment with MCF7; 5.19 µM (inactive) with OVCAR-4; 0.873 µM (active) in the experiment with RXF 393; < 0.01 µM (active) with OVCAR-8. Further, the GI50 in the experiment with M14 is < 0.01 µM (active); in the experiment on MDA-MB-231, < 0.01 µM (active); with K562, < 0.0208 µM (active); with COLO 205 it was < 0.01 µM (active); in the experiment on SW-620, < 0.01 µM (active).

On to `COc1cc2c(cc1OC)CC1c3cc(OC)c(OC)cc3CCN1CC2` (centres undefined), for which the GI50 in the experiment with NCI-H23 is 0.101 µM (active); with EKVX it was > 100 µM (inactive); with NCI/ADR-RES, 63.2 µM (inactive); with UACC-62, 67 µM (inactive); in the experiment with SF-295, 95.1 µM (inactive); in the experiment on CAKI-1, > 100 µM (inactive). Moreover, the GI50 in the experiment with HCT-15 is above 100 µM; in the experiment with HOP-62 it was > 100 µM (inactive); with MCF7, > 100 µM (inactive); in the experiment with OVCAR-4 it was > 100 µM (inactive); in the experiment on RXF 393, 83.6 µM (inactive); in the experiment on OVCAR-8, 95.5 µM (inactive). Also, the GI50 in the experiment on M14 is > 100 µM (inactive); in the experiment on TK-10, > 100 µM (inactive); in the experiment with MDA-MB-231, > 100 µM (inactive); with K562 it was 89.7 µM (inactive); with COLO 205, > 100 µM (inactive); in the experiment with SW-620 it was 84.1 µM (inactive).

Regarding `CO/C(C)=N/CCC1=CCCCC1`, the GI50 in the experiment with NCI-H23 was > 100 µM (inactive); with EKVX, > 100 µM (inactive); in the experiment on NCI/ADR-RES, > 100 µM (inactive); in the experiment with UACC-62 it was > 100 µM (inactive); with SF-295 it was 55.5 µM (inactive); with CAKI-1 it was > 100 µM (inactive). Besides, the GI50 is above 100 µM in the experiment with HCT-15; > 100 µM (inactive) in the experiment with HOP-62; > 100 µM (inactive) in the experiment on MCF7; > 100 µM (inactive) in the experiment with OVCAR-4; > 100 µM (inactive) with RXF 393; > 100 µM (inactive) in the experiment on OVCAR-8. Moreover, the GI50 was > 100 µM (inactive) in the experiment with M14; > 100 µM (inactive) with TK-10; > 100 µM (inactive) in the experiment with MDA-MB-231; 93.1 µM (inactive) with K562; > 100 µM (inactive) with COLO 205; > 100 µM (inactive) in the experiment with SW-620.

Turning to `CCC1CCN/C(=N/S(=O)(=O)c2cc(C)c(Cl)cc2S)N1` (centres undefined), the GI50 is 32.5 µM (inactive) in the experiment with EKVX; 38.7 µM (inactive) in the experiment on NCI/ADR-RES; 14 µM (inactive) in the experiment on UACC-62; 24.1 µM (inactive) in the experiment on LOX IMVI; 30 µM (inactive) with CAKI-1; 38.5 µM in the experiment with HCT-15. Also, the GI50 in the experiment on HOP-62 is 24.3 µM (inactive); in the experiment on MCF7 it was 33.3 µM (inactive); with OVCAR-4, 24.3 µM (inactive); with RXF 393, 76.2 µM (inactive); with OVCAR-8 it was 19.8 µM (inactive); with M14, 35.7 µM (inactive). The GI50 in the experiment with TK-10 was 37.7 µM (inactive); in the experiment on MDA-MB-231, 44.8 µM (inactive); with K562, 32.4 µM (inactive); in the experiment on COLO 205 it was 39.2 µM (inactive); in the experiment with SW-620, 28.7 µM (inactive).

For `COc1cccc(-c2cc(O)c3cccnc3n2)c1`, the GI50 is 0.204 µM (active) in the experiment with NCI-H23; 0.0617 µM (active) with NCI/ADR-RES; 0.0662 µM (active) with UACC-62; 0.0867 µM (active) in the experiment with LOX IMVI; 0.075 µM (active) in the experiment with SF-295; 0.0984 µM (active) in the experiment with CAKI-1. Moreover, the GI50 in the experiment on HCT-15 is 0.0873 µM; in the experiment with HOP-62, 0.104 µM (active); in the experiment on MCF7, 0.488 µM (active); in the experiment with OVCAR-4, > 40.5 µM (inactive); in the experiment on RXF 393, 0.229 µM (active); with OVCAR-8, 0.235 µM (active). In addition, the GI50 in the experiment with M14 is 0.0575 µM (active); in the experiment with TK-10 it was > 100 µM (inactive); with MDA-MB-231, 1.27 µM (inactive); with K562, 0.0339 µM (active); in the experiment with COLO 205, 0.0771 µM (active); in the experiment on SW-620, 0.0809 µM (active).
